# Measured values taken from US20090156501A1, “IDENTIFICATION OF LIGANDS BY SELECTIVE AMPLIFICATION OF CELLS TRANSFECTED WITH RECEPTORS” (ACADIA PHARMACEUTICALS, INC., priority 1999, published 2009).
# Read-outs that look alike come from different tables or passages of the source.
# Legend:
# Format in all cases: cell-based
# [1] = target: T1, α2-C2 adrenergic receptor (Homo sapiens, UniProt P18089); assay: Single Receptor Format amplification assay, alpha 2 C2; settings: for EC50: Table 3, 8-10 concentrations, 3-4 replicates, read-out: Agonist EC50 nM, α2-C2
# T1 construct: expressed in transfected cells; host or cells: NIH 3T3
# T1 sequence (P18089 1-450): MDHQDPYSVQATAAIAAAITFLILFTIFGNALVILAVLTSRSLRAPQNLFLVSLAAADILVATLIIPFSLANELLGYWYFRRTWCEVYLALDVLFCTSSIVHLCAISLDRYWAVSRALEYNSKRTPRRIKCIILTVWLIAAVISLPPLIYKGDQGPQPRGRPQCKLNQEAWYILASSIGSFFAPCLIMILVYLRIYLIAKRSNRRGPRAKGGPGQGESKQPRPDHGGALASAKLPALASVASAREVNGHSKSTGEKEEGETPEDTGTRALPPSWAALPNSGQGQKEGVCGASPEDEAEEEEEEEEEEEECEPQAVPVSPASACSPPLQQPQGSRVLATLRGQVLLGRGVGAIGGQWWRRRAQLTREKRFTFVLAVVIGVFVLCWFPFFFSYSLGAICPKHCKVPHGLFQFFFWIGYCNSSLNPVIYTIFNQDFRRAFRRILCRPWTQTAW
# [2] = target: T2, α2-C4 adrenergic receptor (Homo sapiens, UniProt P18825); assay: Single Receptor Format amplification assay, alpha 2 C4; settings: for EC50: Table 3, 8-10 concentrations, 3-4 replicates, read-out: Agonist EC50 nM, α2-C4; for Max Response, α2-C4: relative to other ligands at the given receptor
# T2 construct: expressed in transfected cells; host or cells: NIH 3T3
# T2 sequence (P18825 1-462): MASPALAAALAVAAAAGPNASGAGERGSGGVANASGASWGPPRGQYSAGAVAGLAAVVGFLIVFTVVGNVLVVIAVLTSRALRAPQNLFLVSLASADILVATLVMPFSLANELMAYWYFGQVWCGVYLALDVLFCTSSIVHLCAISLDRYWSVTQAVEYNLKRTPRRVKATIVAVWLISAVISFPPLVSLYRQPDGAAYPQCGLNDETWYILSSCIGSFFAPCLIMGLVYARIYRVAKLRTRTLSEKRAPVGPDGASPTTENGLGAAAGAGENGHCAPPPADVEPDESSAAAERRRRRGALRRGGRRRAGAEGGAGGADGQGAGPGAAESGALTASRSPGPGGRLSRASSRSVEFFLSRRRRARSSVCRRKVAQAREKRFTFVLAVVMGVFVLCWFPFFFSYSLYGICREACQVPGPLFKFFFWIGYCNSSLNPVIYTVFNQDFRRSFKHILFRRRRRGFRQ
# [3] = target: T3, α2-C10 adrenergic receptor (Homo sapiens, UniProt P08913); assay: Single Receptor Format amplification assay, alpha 2 C10; settings: for Max Response, α2-C10: relative to other ligands at the given receptor; for EC50: Table 3, 8-10 concentrations, 3-4 replicates, read-out: Agonist EC50 nM, α2-C10
# T3 construct: expressed in transfected cells; host or cells: NIH 3T3
# T3 sequence (P08913 1-465): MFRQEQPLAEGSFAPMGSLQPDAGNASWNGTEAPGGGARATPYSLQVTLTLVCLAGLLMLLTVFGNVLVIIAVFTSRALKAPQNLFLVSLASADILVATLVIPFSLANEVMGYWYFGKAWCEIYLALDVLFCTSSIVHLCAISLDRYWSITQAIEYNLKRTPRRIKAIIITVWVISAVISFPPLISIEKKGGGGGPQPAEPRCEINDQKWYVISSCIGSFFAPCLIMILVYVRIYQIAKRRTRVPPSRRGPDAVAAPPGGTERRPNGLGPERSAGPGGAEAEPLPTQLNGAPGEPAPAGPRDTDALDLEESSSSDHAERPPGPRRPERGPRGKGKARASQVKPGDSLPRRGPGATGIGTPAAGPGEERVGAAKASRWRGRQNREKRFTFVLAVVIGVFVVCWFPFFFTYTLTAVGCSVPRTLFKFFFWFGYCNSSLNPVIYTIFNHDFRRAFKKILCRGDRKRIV
# 5-HT2C receptor = target: T4, 5-HT2C receptor (Homo sapiens, UniProt P28335); assay: R-SAT functional assay of the 5-HT2C receptor (inverse agonism); settings: Table 6, 50 ng per well receptor DNA
# T4 construct: expressed in transfected cells; PSI mammalian expression vector
# T4 sequence (P28335 33-458): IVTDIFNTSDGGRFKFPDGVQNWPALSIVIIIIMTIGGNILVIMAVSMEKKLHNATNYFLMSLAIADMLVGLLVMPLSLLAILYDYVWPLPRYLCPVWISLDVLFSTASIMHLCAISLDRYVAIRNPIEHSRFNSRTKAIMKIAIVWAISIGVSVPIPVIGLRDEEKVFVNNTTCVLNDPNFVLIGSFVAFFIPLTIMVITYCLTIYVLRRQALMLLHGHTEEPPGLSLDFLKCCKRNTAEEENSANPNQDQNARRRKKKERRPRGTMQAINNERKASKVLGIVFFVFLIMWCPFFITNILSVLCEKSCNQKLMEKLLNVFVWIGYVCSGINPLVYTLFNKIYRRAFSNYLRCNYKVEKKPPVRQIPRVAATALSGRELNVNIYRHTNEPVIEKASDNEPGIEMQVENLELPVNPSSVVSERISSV
# 5-HT2A receptor = target: T5, 5-HT2A receptor (Homo sapiens, UniProt P28223); assay: R-SAT functional assay of the 5-HT2A receptor in NIH 3T3 cells (agonism and inverse agonism); settings: for 5-HT2A Receptor Negative Log EC50: Table 6, inverse agonism, 50 ng per well receptor DNA; for Negative Log EC50, inverse agonists at the 5-HT2A receptor: Table 5, inhibition of constitutive activity, mean of three dose response experiments ± standard error
# T5 construct: expressed in transfected cells; host or cells: NIH 3T3 (mouse fibroblasts), transient transfection, PSI expression vector
# T5 sequence (P28223 whole entry): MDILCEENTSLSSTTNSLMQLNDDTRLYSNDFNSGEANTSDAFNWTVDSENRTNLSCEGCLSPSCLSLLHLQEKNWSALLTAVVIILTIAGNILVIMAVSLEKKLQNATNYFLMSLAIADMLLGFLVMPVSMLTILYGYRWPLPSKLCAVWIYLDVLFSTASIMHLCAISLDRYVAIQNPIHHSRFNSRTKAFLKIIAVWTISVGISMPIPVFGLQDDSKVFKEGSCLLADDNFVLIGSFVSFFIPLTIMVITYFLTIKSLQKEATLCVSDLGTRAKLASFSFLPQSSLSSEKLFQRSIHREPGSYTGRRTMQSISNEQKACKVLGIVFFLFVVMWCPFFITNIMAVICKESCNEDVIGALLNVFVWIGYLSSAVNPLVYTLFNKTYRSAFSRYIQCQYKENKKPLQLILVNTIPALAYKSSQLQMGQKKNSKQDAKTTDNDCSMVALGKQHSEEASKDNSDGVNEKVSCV
# [4] = relative to other ligands at the given receptor
# [5] = compounds at 300-500 nM, 50 ng/well receptor DNA, […], mean of duplicates
# [6] = compounds at 300-500 nM, 50 ng/well receptor DNA, inhibition from basal, referenced to ritanserin (90-100%), mean of duplicates
compound,measurement,setting,value
NC[C@H](O)c1ccc(O)c(O)c1 [Norepinephrine],EC50,[1],7200 nM
same,"Max Response, α2-C2",[1]; [4],++
same,EC50,[2],2 nM
same,"Max Response, α2-C4",[2],+
COc1cc2nc(N3CCN(C(=O)c4ccco4)CC3)nc(N)c2cc1OC [Prazocin],"Max Response, α2-C10",[3],±
same,"Max Response, α2-C4",[2],++
CCN1CCc2nc(N)oc2CC1 [BHT 933],EC50,[1],> 10000 nM
same,"Max Response, α2-C2",[1]; [4],+++
same,EC50,[3],> 10000 nM
same,"Max Response, α2-C10",[3],++
Cc1ccc(C2(O)CCN(CCCC(=O)c3ccc(F)cc3)CC2)cc1 [Moperone],5-HT2C Receptor Negative Log EC50,5-HT2C receptor,No Intrinsic
Clc1cccc(Cl)c1N=C1NCCN1 [Clonidine],"Max Response, α2-C4",[2],++
CN1CCCCC1CCN1c2ccccc2Sc2ccc([S+](C)[O-])cc21 (stereo not shown) [Mesioridazine],5-HT2A Receptor Negative Log EC50,5-HT2A receptor,7.00 ± 0.30
same,5-HT2C Receptor Negative Log EC50,5-HT2C receptor,No Intrinsic
JL-18,5-HT2C Receptor Negative Log EC50,5-HT2C receptor,6.09 ± 0.45
OCCN1CCN(CC/C=C2/c3ccccc3Sc3ccc(C(F)(F)F)cc32)CC1 [Cis-Flupentixol],"Negative Log EC50, inverse agonists at the 5-HT2A receptor",5-HT2A receptor,8.04 ± 0.10 molar
same,5-HT2A Receptor Negative Log EC50,5-HT2A receptor,8.04 ± 0.10
same,"% INHIBITION, screen for inverse agonism at 5-HT2A receptors",5-HT2A receptor; [5],45%
same,5-HT2C Receptor Negative Log EC50,5-HT2C receptor,No Intrinsic
O=C1NCN(c2ccccc2)C12CCN(CCCC(c1ccc(F)cc1)c1ccc(F)cc1)CC2 [Fluspirilene],"% INHIBITION, screen for inverse agonism at 5-HT2A receptors",5-HT2A receptor; [6],57%
CC1CCN(CCCC(=O)c2ccc(F)cc2)CC1 [Melperone],5-HT2C Receptor Negative Log EC50,5-HT2C receptor,No Intrinsic
"NCCC1CCCC(CCN)N1 (stereo not shown) [Mdl 26,630 3HCl]","% INHIBITION, screen for inverse agonism at 5-HT2A receptors",5-HT2A receptor; [6],75%
CN(C)CCCSc1ccccc1NC(=O)/C=C/c1ccccc1 [CINANSERIN],"% INHIBITION, screen for inverse agonism at 5-HT2A receptors",5-HT2A receptor; [6],75%
CN1CCN(CC/C=C2/c3ccccc3Sc3ccc(S(=O)(=O)N(C)C)cc32)CC1 [Thiothixene],5-HT2C Receptor Negative Log EC50,5-HT2C receptor,No Intrinsic
Cc1nc2sccn2c(=O)c1CCN1CCC(=C(c2ccc(F)cc2)c2ccc(F)cc2)CC1 [ritanserin],"% INHIBITION, screen for inverse agonism at 5-HT2A receptors",5-HT2A receptor; [6],90%
same,intrinsic activity at the 5-HT2A receptor (inverse agonism),5-HT2A receptor; receptor signaling relative to baseline (no drug),inverse agonist
CN1CCN(C2=Nc3ccccc3Oc3ccc(Cl)cc32)CC1 [Loxapine],"% INHIBITION, screen for inverse agonism at 5-HT2A receptors",5-HT2A receptor; [6],77%
CN1CCN(C2Cc3ccccc3Sc3ccc(Cl)cc32)CC1.O=C(O)/C=C\C(=O)O (stereo not shown) [Octoclothepin],5-HT2A Receptor Negative Log EC50,5-HT2A receptor,9.74 ± 0.98
same,"% INHIBITION, screen for inverse agonism at 5-HT2A receptors",5-HT2A receptor; [5],76%
Cc1cc(C(C)(C)C)c(O)c(C)c1CC1=NCCN1 [Oxymetazoline],"Max Response, α2-C4",[2],+
O=C(c1ccc(F)cc1)C1CCN(CCn2c(=O)[nH]c3ccccc3c2=O)CC1 [KETANSERIN],"% INHIBITION, screen for inverse agonism at 5-HT2A receptors",5-HT2A receptor; [6],82%
CCN1CCCC1CNC(=O)c1cc(S(N)(=O)=O)ccc1OC (stereo not shown) [Sulpiride],5-HT2C Receptor Negative Log EC50,5-HT2C receptor,No Intrinsic
N=C(N)NC(=O)Cc1c(Cl)cccc1Cl [Guanfacine],"Max Response, α2-C4",[2],±
O=C(CCCN1CCC(O)(c2cccc(C(F)(F)F)c2)CC1)c1ccc(F)cc1 [Triflouperidol],"% INHIBITION, screen for inverse agonism at 5-HT2A receptors",5-HT2A receptor,96%
CN(C)CCCN1c2ccccc2Sc2cccnc21 [Prothypendyl],5-HT2A Receptor Negative Log EC50,5-HT2A receptor,6.60 ± 0.44
same,5-HT2C Receptor Negative Log EC50,5-HT2C receptor,Agonist
CN(C)CCCN1c2ccccc2Sc2ccccc21 [Promazine],5-HT2C Receptor Negative Log EC50,5-HT2C receptor,Agonist
CSc1ccc2c(c1)C(N1CCN(C)CC1)Cc1ccccc1S2 (stereo not shown) [METHIOTHEPIN],"% INHIBITION, screen for inverse agonism at 5-HT2A receptors",5-HT2A receptor,79%
C=CCN1CCc2nc(N)sc2CC1 [BHT 920],"Max Response, α2-C2",[1]; [4],+++
same,EC50,[3],> 10000 nM
same,"Max Response, α2-C10",[3],+++
same,EC50,[2],> 10000 nM
same,"Max Response, α2-C4",[2],+++
OCCN1CCN(CC/C=C2\c3ccccc3Sc3ccc(C(F)(F)F)cc32)CC1 [Trans-Flupentixol],"Negative Log EC50, inverse agonists at the 5-HT2A receptor",5-HT2A receptor,6.77 ± 0.21 molar
same,5-HT2A Receptor Negative Log EC50,5-HT2A receptor,6.77 ± 0.21
same,5-HT2C Receptor Negative Log EC50,5-HT2C receptor,5.55 ± 0.37
O=C(CCCN1CCC(O)(c2ccc(Br)cc2)CC1)c1ccc(F)cc1 [Bromperidol],5-HT2C Receptor Negative Log EC50,5-HT2C receptor,No Intrinsic
O=C(CCCN1CCC2(CC1)C(=O)NCN2c1ccccc1)c1ccc(F)cc1 [Spiperone],"% INHIBITION, screen for inverse agonism at 5-HT2A receptors",5-HT2A receptor; [6],82%
same,5-HT2C Receptor Negative Log EC50,5-HT2C receptor,No Intrinsic
C1COC(NC(C2CC2)C2CC2)=N1 [Rilmenidine],"Max Response, α2-C2",[1]; [4],±
same,"Max Response, α2-C10",[3],±
same,EC50,[2],480 nM
same,"Max Response, α2-C4",[2],+
CCNC(=O)N1CCN(CCCC(c2ccc(F)cc2)c2ccc(F)cc2)CC1 [Amperozide],5-HT2C Receptor Negative Log EC50,5-HT2C receptor,No Intrinsic
Cc1cccc([C@H](C)c2cnc[nH]2)c1C [Dexmedetomidine],"Max Response, α2-C2",[1],2/+++
same,"Max Response, α2-C10",[3],±
same,"Max Response, α2-C4",[2],±
N[C@@H](Cc1c[nH]c2ccc(O)cc12)C(=O)O [5-hydroxy-Ltryptophan],"% INHIBITION, screen for inverse agonism at 5-HT2A receptors",5-HT2A receptor; [6],53%
Cc1nc2ccccn2c(=O)c1CCN1CCC(C(=O)c2ccc(F)cc2)CC1 [PIRENPIRONE],"% INHIBITION, screen for inverse agonism at 5-HT2A receptors",5-HT2A receptor; [6],92%
Nc1cc(Cl)c(N=C2NCCN2)c(Cl)c1 [p-NH2-Clonidine],"Max Response, α2-C10",[3],±
same,"Max Response, α2-C4",[2],±
CC(C)NCC(O)c1ccc(O)c(O)c1 (stereo not shown) [Isoproterenol],"Max Response, α2-C4",[2],+
CCN(CC)CCCN1c2ccccc2Sc2ccc(Cl)cc21 [Chlorproethizene],5-HT2A Receptor Negative Log EC50,5-HT2A receptor,7.70 ± 0.33
same,5-HT2C Receptor Negative Log EC50,5-HT2C receptor,<5.0
